According to ChEMBL document CHEMBL1201862, “PubChem BioAssay data set” (2004):
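In this assay, cells in 96-well plates receive the compound at five concentrations for 48 hours. Endpoints are linearly interpolated between the surrounding concentrations. Here, GI50 denotes the concentration required for 50% inhibition of growth.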 The source made the active and inactive calls. Cut-off read from the data, not from the text of the source: active = GI50 up to about 1.1 µM and inactive = higher.

Key:
Experiment in all cases: NCI anticancer screen, dose series, 48 h
SK-MEL-5 = tested on: SK-MEL-5
CCRF-CEM = tested on: CCRF-CEM
SF-268 = tested on: SF-268
K562 = tested on: K562
SR = tested on: SR
IGROV-1 = tested on: IGROV-1
SK-OV-3 = tested on: SK-OV-3
UO-31 = tested on: UO-31
786-0 = tested on: 786-0
KM12 = tested on: KM12
OVCAR-5 = tested on: OVCAR-5
NCI-H460 = tested on: NCI-H460
BT-549 = tested on: BT-549
U-251 = tested on: U-251
T47D = tested on: T47D
NCI-H226 = tested on: NCI-H226
SF-295 = tested on: SF-295
ACHN = tested on: ACHN
A549 = tested on: A549
Hs-578T = tested on: Hs-578T

Row | Compound | GI50 (SK-MEL-5) | GI50 (CCRF-CEM) | GI50 (SF-268) | GI50 (K562) | GI50 (SR) | GI50 (IGROV-1) | GI50 (SK-OV-3) | GI50 (UO-31) | GI50 (786-0) | GI50 (KM12) | GI50 (OVCAR-5) | GI50 (NCI-H460) | GI50 (BT-549) | GI50 (U-251) | GI50 (T47D) | GI50 (NCI-H226) | GI50 (SF-295) | GI50 (ACHN) | GI50 (A549) | GI50 (Hs-578T)
1 | O=[N+]([O-])/C(C(Cl)=C(Cl)Cl)=C(/Sc1ccccc1)N1CCCCC1 | 24.5 µM (inactive) | 4.74 µM (inactive) | > 45.6 µM (inactive) | 23.9 µM (inactive) | 2.79 µM (inactive) | 16.5 µM (inactive) | 34.1 µM (inactive) | > 61.5 µM (inactive) | 31.8 µM (inactive) | > 100 µM (inactive) | > 100 µM (inactive) | > 100 µM (inactive) | > 100 µM (inactive) | > 100 µM (inactive) | 11.9 µM (inactive) | > 100 µM (inactive) | 43.1 µM (inactive) | > 100 µM (inactive) | > 93.5 µM (inactive) | 67 µM (inactive)
2 | CC1=CC[C@@]2(C)[C@@H]([C@@H]1C)[C@H]1CC[C@@H]3[C@@]4(C)CC[C@H](O)C(C)(C)[C@@H]4CC[C@@]3(C)[C@]1(C)C[C@@H]2O | 13.7 µM (inactive) | 5.38 µM (inactive) | 9.79 µM (inactive) | 4.2 µM (inactive) | 3.46 µM (inactive) | 17.1 µM (inactive) | > 44.7 µM (inactive) | > 100 µM (inactive) | 12.4 µM (inactive) | 23.3 µM (inactive) | > 50.8 µM (inactive) | 19.1 µM (inactive) | 29.1 µM (inactive) | 7.94 µM (inactive) | 23 µM (inactive) | 27.2 µM (inactive) | 13.2 µM (inactive) | 9.62 µM (inactive) | 12.6 µM (inactive) | 37 µM (inactive)
3 | Cc1cc(C)c(S(=O)(=O)N(CCCCCCN)OCCCON(CCCCCCN)S(=O)(=O)c2c(C)cc(C)cc2C)c(C)c1 | 1.82 µM (inactive) | 2.29 µM (inactive) | 1.78 µM (inactive) | 3.61 µM (inactive) | 2.51 µM (inactive) | 1.65 µM (inactive) | 1.71 µM (inactive) | 2.06 µM (inactive) | 1.9 µM (inactive) | 1.9 µM (inactive) | 1.4 µM (inactive) | 1.64 µM (inactive) | 1.65 µM (inactive) | 1.7 µM (inactive) | 1.91 µM (inactive) | 1.79 µM (inactive) | 1.82 µM (inactive) | 2.55 µM (inactive) | 1.72 µM (inactive) | 2.11 µM (inactive)
4 | COc1cc(NS(C)(=O)=O)ccc1Nc1c2ccccc2nc2c1[nH]c1ccc(NC3OC(CO)C(O)C(O)C3O)cc12 (stereo not given) | 0.0859 µM (active) | < 0.0132 µM (active) | 0.018 µM (active) | 0.191 µM (active) | < 0.01 µM (active) | 0.248 µM (active) | 0.0173 µM (active) | 0.128 µM (active) | 0.0246 µM (active) | 0.207 µM (active) | 0.444 µM (active) | < 0.01 µM (active) | 1.3 µM (inactive) | < 0.0201 µM (active) | 0.0327 µM (active) | < 0.0181 µM (active) | < 0.0139 µM (active) | < 0.0161 µM (active) | < 0.0134 µM (active) | 0.518 µM (active)
5 | CCCCC/C(=N\c1[nH]nnc1C(N)=O)OCC | > 100 µM (inactive) | > 100 µM (inactive) | > 100 µM (inactive) | > 100 µM (inactive) | > 100 µM (inactive) | > 100 µM (inactive) | > 100 µM (inactive) | > 100 µM (inactive) | > 100 µM (inactive) | > 100 µM (inactive) | > 100 µM (inactive) | > 100 µM (inactive) | > 100 µM (inactive) | > 100 µM (inactive) | > 100 µM (inactive) | > 100 µM (inactive) | > 100 µM (inactive) | > 100 µM (inactive) | > 100 µM (inactive) | > 100 µM (inactive)
6 | c1ccc(-c2cc3[nH]c4ccccc4[nH]c-3cc(-c3ccccc3)nn2)cc1 | 74.6 µM (inactive) | 49.3 µM (inactive) | 53 µM (inactive) | > 100 µM (inactive) | 96.2 µM (inactive) | 32.1 µM (inactive) | 17.7 µM (inactive) | 21.3 µM (inactive) | 29.2 µM (inactive) | 46.9 µM (inactive) | > 100 µM (inactive) | 30 µM (inactive) | > 100 µM (inactive) | 55.6 µM (inactive) | > 100 µM (inactive) | 45.6 µM (inactive) | 24.4 µM (inactive) | 24.9 µM (inactive) | 40.4 µM (inactive) | 66.4 µM (inactive)
7 | CC1=CC(C)C(C)N(CCNS(=O)(=O)c2ccc(C)cc2)c2ccccc21 (stereo not given) | > 10 µM (inactive) | 13 µM (inactive) | 13 µM (inactive) | 14.7 µM (inactive) | 16 µM (inactive) | 17 µM (inactive) | 29.6 µM (inactive) | 16.5 µM (inactive) | 14.2 µM (inactive) | 19.1 µM (inactive) | 18.7 µM (inactive) | 12.8 µM (inactive) | 17.1 µM (inactive) | 16.5 µM (inactive) | 10.8 µM (inactive) | 12.3 µM (inactive) | 13.8 µM (inactive) | 15.8 µM (inactive) | 19.4 µM (inactive) | 12.9 µM (inactive)
8 | COc1ccc(C2=Cc3nc2c(-c2ccccc2)c2ccc([nH]2)c(-c2ccccc2)c2nc(c(-c4ccccc4)c4ccc([nH]4)c3-c3ccccc3)C=C2)cc1 | > 100 µM (inactive) | > 100 µM (inactive) | 51.4 µM (inactive) | > 100 µM (inactive) | > 100 µM (inactive) | > 100 µM (inactive) | > 100 µM (inactive) | > 100 µM (inactive) | > 100 µM (inactive) | > 100 µM (inactive) | > 100 µM (inactive) | > 100 µM (inactive) | > 100 µM (inactive) | 30.5 µM (inactive) | > 100 µM (inactive) | > 100 µM (inactive) | > 100 µM (inactive) | > 100 µM (inactive) | > 100 µM (inactive) | > 100 µM (inactive)
9 | CCCC[C@@H](C)/C=C1\CN2CCC[C@H]2[C@@](C)(OCc2ccccc2)[C@@H]1O | > 50 µM (inactive) | > 50 µM (inactive) | > 29.4 µM (inactive) | > 29.9 µM (inactive) | > 50 µM (inactive) | > 30.6 µM (inactive) | > 50 µM (inactive) | > 13.2 µM (inactive) | > 47.4 µM (inactive) | > 13.8 µM (inactive) | > 50 µM (inactive) | > 16.7 µM (inactive) | > 50 µM (inactive) | > 34.4 µM (inactive) | 8.79 µM (inactive) | > 50 µM (inactive) | > 50 µM (inactive) | > 50 µM (inactive) | > 43.7 µM (inactive) | > 50 µM (inactive)
10 | COC(=O)[C@@H]1C[C@@H](O)CN1C(=O)c1ccc([N+](=O)[O-])cc1[N+](=O)[O-] | 96.6 µM (inactive) | > 100 µM (inactive) | > 100 µM (inactive) | > 100 µM (inactive) | > 100 µM (inactive) | > 100 µM (inactive) | > 100 µM (inactive) | > 100 µM (inactive) | > 100 µM (inactive) | > 100 µM (inactive) | > 100 µM (inactive) | > 100 µM (inactive) | > 100 µM (inactive) | > 100 µM (inactive) | > 100 µM (inactive) | > 100 µM (inactive) | > 100 µM (inactive) | > 100 µM (inactive) | > 100 µM (inactive) | > 100 µM (inactive)
11 | COC(=O)[C@@H]1COC(C(C)(C)C)N1C(=O)C(c1ccccc1)c1ccccc1 (stereo not given in full) | 36.8 µM (inactive) | 26.7 µM (inactive) | > 100 µM (inactive) | 19.5 µM (inactive) | 0.446 µM (active) | 73.1 µM (inactive) | 31.4 µM (inactive) | 52.5 µM (inactive) | 46.2 µM (inactive) | 43.6 µM (inactive) | > 100 µM (inactive) | 40.3 µM (inactive) | > 100 µM (inactive) | 42 µM (inactive) | 62.8 µM (inactive) | 49.7 µM (inactive) | 60.1 µM (inactive) | 69.3 µM (inactive) | 65.8 µM (inactive) | 55.5 µM (inactive)
